In assay [1] the test system is BaF3-ITD-FLT3 F691L cell line. In words: Cell proliferation inhibition, Alamar Blue. In kind it is cell-based. The following applies: 72 hours of compound treatment, read-out: Cellular (GI50) BaF3-ITD-FLT3 F691L. Here is the method: (§1) The cell proliferation inhibition experiment on acute myeloid leukemia (AML) cell lines was performed using FL3-ITD-expressing AML cell line MV4-11, BaF3-ITD-FLT3 F691L cell line, and BaF3-ITD-FLT3 D835Y cell line to test FLT3 inhibitory activity. All cell lines were human-derived cell lines, and the sources and culture conditions for each cell line are as follows.
(§2) Cell viability was assessed by a resazurin redox-based assay using the Alamar Blue Assay kit (Invitrogen, USA). Specifically, MV4-11, BaF3-ITD-FLT3-F691L, and BaF3-ITD-FLT3-D835Y cells were plated in 384-well plates at 8,000 cells in 45 μL of medium. As a negative control, dimethyl sulfoxide (DMSO) was added together with the compound. After three days (72 hours) of compound treatment, 5 μL of the Alamar Blue kit reagent was added to each well of the 384-well plates, followed by incubation at 37° C. for 2 hours in a humidified CO2 incubator. After incubation, fluorescence intensity (Flu) was measured at 544 nm and 590 nm using a SpectraMax iD3 Multi Mode Microplate Reader (Molecular Devices, ID3-STD).

For assay [2], the system named is BaF3-ITD-FLT3 D835Y cell line. In words: Cell proliferation inhibition, Alamar Blue. The settings on record: 72 hours of compound treatment, read-out: Cellular (GI50) BaF3-ITD-FLT3 D835Y. In kind it is cell-based. Here is the method:
as §1, §2

Assay [3] has as its system MV4-11 cells (FLT3-ITD-expressing AML cell line). In words: Cell proliferation inhibition, Alamar Blue. The following applies: Homo sapiens, MV4-11, 72 hours of compound treatment, read-out: Cellular (GI50) MV4-11. In kind it is cell-based, human. Here is the method:
as §1, §2

The next assay addresses T1, FLT3(D835Y) (Homo sapiens, UniProt P36888, D835Y).
T1 construct: Recombinant proteins containing FLT3 and FLT3(D835Y) domains were purchased from Promega; purchased Promega V4514
The assay can be described thus: ADP-Glo kinase assay FLT3 D835Y. In kind it is biochemical. The following applies: recombinant FLT3(D835Y), 120 minutes at room temperature, read-out: Enzyme (IC50) FLT3 D835Y. Here is the method: (§3) FLT3 activity inhibition was measured using the ADP-Glo kinase assay method (Promega, cat #V9101). The ADP-Glo kinase assay method is a luminescent ADP detection assay method that provides a homogeneous, high-throughput screening method for measuring kinase activity by quantifying the amount of ADP produced during the kinase reaction.
(§4) The assay was performed in two steps. First, after the kinase reaction, an equal volume of ADP-Glo™ reagent was added to terminate the kinase reaction and deplete any remaining ATP. Second, a kinase detection reagent was added to convert ADP to ATP, and simultaneously the newly synthesized ATP was measured via the luciferase/luciferin reaction. The light produced was measured using a luminometer.
Recombinant proteins containing FLT3 and FLT3(D835Y) domains were purchased from Promega (cat #V4064, cat #V4514), respectively. According to the manufacturer's instructions, the optimal enzyme, ATP, and substrate concentrations were optimized using the ADP-Glo™ kinase assay method (Promega, USA). […] Finally, the detection reagent (kinase detection reagent, 10 μl) was added, followed by reaction at room temperature for 30 minutes, and the phosphorylation of the substrate peptide was measured by detecting the luciferase signal (integration time 0.5~1 sec) using a SpectraMax ID5 reader (Molecular Devices LLC., San Jose, CA, USA).

A further assay concerns the target T2, FLT3 (Homo sapiens, UniProt P36888).
T2 construct: Recombinant proteins containing FLT3 and FLT3(D835Y) domains were purchased from Promega; purchased Promega V4064
T2 sequence (P36888 610-943 limits assumed): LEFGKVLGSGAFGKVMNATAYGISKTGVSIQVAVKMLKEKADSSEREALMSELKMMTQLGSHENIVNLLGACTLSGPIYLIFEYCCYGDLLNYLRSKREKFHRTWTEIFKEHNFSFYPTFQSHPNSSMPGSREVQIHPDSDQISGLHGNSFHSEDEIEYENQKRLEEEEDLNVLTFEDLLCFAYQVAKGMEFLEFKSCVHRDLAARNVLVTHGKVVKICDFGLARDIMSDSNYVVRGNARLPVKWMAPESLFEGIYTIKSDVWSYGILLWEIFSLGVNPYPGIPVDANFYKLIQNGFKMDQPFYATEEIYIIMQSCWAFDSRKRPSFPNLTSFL
The assay can be described thus: ADP-Glo kinase assay FLT3 WT. In kind it is biochemical. The settings on record: recombinant FLT3, 120 minutes at room temperature, read-out: Enzyme (IC50) FLT3 WT. As for the experimental part:
as §3, §4
Recombinant proteins containing FLT3 and FLT3(D835Y) domains were purchased from Promega (cat #V4064, cat #V4514), respectively. According to the manufacturer's instructions, the optimal enzyme, ATP, and substrate concentrations were optimized using the ADP-Glo™ kinase assay method (Promega, USA). […] Thereafter, ADP-Glo™ reagent (5 μl) was added and reacted for an additional 40 minutes at room temperature. Finally, the detection reagent (kinase detection reagent, 10 μl) was added, followed by reaction at room temperature for 30 minutes, and the phosphorylation of the substrate peptide was measured by detecting the luciferase signal (integration time 0.5~1 sec) using a SpectraMax ID5 reader (Molecular Devices LLC., San Jose, CA, USA).

Molecules are shown by their SMILES. pIC50: −log10 of the molar value.

Take `O=C(NCC1CNC1)c1ccc2[nH]nc(-c3nc4ccc(-c5ccoc5)cc4[nH]3)c2c1` [Example 75, N-(azetidin-3-ylmethyl)-3-(6-(furan-3-yl)-1H-benzo[d]imidazol-2-yl)-1H-indazole-5-carboxamide]: the GI50 in assay [1] is 10 to 100 nM; in assay [2] it was below 10 nM; in assay [3], 10 to 100 nM.
Consider `NCCCNC(=O)c1ccc2[nH]nc(-c3nc4ccc(C(=O)N5CCOCC5)cc4[nH]3)c2c1` [Example 21, N-(3-aminopropyl)-3-(6-(morpholine-4-carbonyl)-1H-benzo[d]imidazol-2-yl)-1H-indazole-5-carboxamide], for which the pIC50 at FLT3(D835Y) and at FLT3 was above 8.00 throughout. In assay [3], the GI50 was in the range of 100 to 1000 nM.
In the case of `NCCCNC(=O)c1ccc2[nH]nc(-c3nc4ccc(CN5CCOCC5)cc4[nH]3)c2c1` [Example 26, N-(3-aminopropyl)-3-(6-(morpholinomethyl)-1H-benzo[d]imidazol-2-yl)-1H-indazole-5-carboxamide], the GI50 in assay [3] was 100 to 1000 nM. For the same molecule, the pIC50 on FLT3 is above 8.00.
With `O=C(NCCCC(F)(F)F)c1ccc2[nH]nc(-c3nc4ccc(N5CCCC5)cc4[nH]3)c2c1` [Example 13, 3-(6-(pyrrolidin-1-yl)-1H-benzo[d]imidazol-2-yl)-N-(4,4,4-trifluorobutyl)-1H-indazole-5-carboxamide], the GI50 in assay [1], in assay [2] and in assay [3] was 10 to 100 nM throughout.
Regarding `O=C(NCC1CC(F)(F)C1)c1ccc2[nH]nc(-c3nc4ccc(N5CCCC5)cc4[nH]3)c2c1` [Example 14, N-((3,3-difluorocyclobutyl)methyl)-3-(6-(pyrrolidin-1-yl)-1H-benzo[d]imidazol-2-yl)-1H-indazole-5-carboxamide], the figures for the GI50 in assay [1], in assay [2] and in assay [3] were 100 to 1000 nM, 10 to 100 nM and 10 to 100 nM, respectively.
For `N[C@H]1CC[C@H](NC(=O)c2ccc3[nH]nc(-c4nc5ccc(-c6ccco6)cc5[nH]4)c3c2)C1` [Example 80, N-((1S,3S)-3-aminocyclopentyl)-3-(6-(furan-2-yl)-1H-benzo[d]imidazol-2-yl)-1H-indazole-5-carboxamide], the results for the GI50 in assay [1], in assay [2] and in assay [3] were 10 to 100 nM, below 10 nM and below 10 nM, respectively.
As to `COc1ccc2nc(-c3n[nH]c4ccc(C(=O)NCCCN(C)C)cc34)[nH]c2c1` [Example 11, N-(3-(dimethylamino)propyl)-3-(6-methoxy-1H-benzo[d]imidazol-2-yl)-1H-indazole-5-carboxamide], the GI50 in assay [3] was below 10 nM. Moreover, at FLT3, the pIC50 is above 8.00.
Turning to `N[C@H]1CC[C@H](NC(=O)c2ccc3[nH]nc(-c4nc5ccc(N6CCCCC6)cc5[nH]4)c3c2)C1` [Example 31, N-((1S,3S)-3-aminocyclopentyl)-3-(6-(piperidin-1-yl)-1H-benzo[d]imidazol-2-yl)-1H-indazole-5-carboxamide], the GI50 is 10 to 100 nM in assay [1], below 10 nM in assay [2] and below 10 nM in assay [3]. For the same molecule, on FLT3, the pIC50 was above 8.00.
Regarding `Cc1ccc2nc(-c3n[nH]c4ccc(C(=O)NCCCN(C)C)cc34)[nH]c2c1` [Example 12, N-(3-(dimethylamino)propyl)-3-(6-methyl-1H-benzo[d]imidazol-2-yl)-1H-indazole-5-carboxamide], the GI50 in assay [3] is below 10 nM. In addition, on FLT3, the pIC50 is above 8.00.

The values above are taken from patent US20260234129A1, “NOVEL IMIDAZOLE DERIVATIVE AND USE THEREOF” (PELEMED CO., LTD., priority 2023, published 2026).
